Assays:
Type in all cases: in vivo
slender amaranth (Am) [1] = assay: Test Example 2: herbicidal effects by upland field soil treatment; details: 100 g of the active ingredient per 10 ares;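 note: grade of growth control; 5 = at least 90%; 4 = 70 to 90%; 3 = 50 to 70%; 2 = 30 to 50%; 1 = 10 to 30%; 0 = under 10%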
Text: (§1) (Test on Herbicidal Effects by Upland Field Soil Treatment)

pale smartweed (Po) [2] = assay: as above; details: 100 g of the active ingredient per 10 ares
Text: as §1

rice flatsedge (Ci) [3] = assay: as above; details: 100 g of the active ingredient per 10 ares
Text: as §1

barnyardgrass (Ec) [4] = assay: as above; details: 100 g of the active ingredient per 10 ares
Text: as §1

[5] = test system: common lambsquarters (Ch); assay: as above; details: 100 g of the active ingredient per 10 ares
Text: as §1

Digitaria ciliaris (Di) = assay: as above; details: 100 g of the active ingredient per 10 ares;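 note: grade of growth control; 5 = at least 90%; 4 = 70 to 90%; 3 = 50 to 70%; 2 = 30 to 50%; 1 = 10 to 30%; 0 = under 10%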
Text: as §1

slender amaranth (Am) [6] = assay: Test Example 3: herbicidal effects by upland field foliage treatment; parameters: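 grade of growth control; 5 = at least 90%; 4 = 70 to 90%; 3 = 50 to 70%; 2 = 30 to 50%; 1 = 10 to 30%; 0 = under 10%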
Summary of the method: (§2)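 Weeds were sown in sand-filled pots (surface area: 120 cm^2), covered with soil and grown in a greenhouse for 2 weeks before foliar treatment. Plants then stayed in the greenhouse, and herbicidal effect was scored against graded standards on the 14th day after treatment.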

pale smartweed (Po) [7] = assay: as above; parameters: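 grade of growth control; 5 = at least 90%; 4 = 70 to 90%; 3 = 50 to 70%; 2 = 30 to 50%; 1 = 10 to 30%; 0 = under 10%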
Summary of the method: as §2

rice flatsedge (Ci) [8] = assay: as above; parameters: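 grade of growth control; 5 = at least 90%; 4 = 70 to 90%; 3 = 50 to 70%; 2 = 30 to 50%; 1 = 10 to 30%; 0 = under 10%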
Summary of the method: as §2

barnyardgrass (Ec) [9] = assay: as above; parameters: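 grade of growth control; 5 = at least 90%; 4 = 70 to 90%; 3 = 50 to 70%; 2 = 30 to 50%; 1 = 10 to 30%; 0 = under 10%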
Summary of the method: as §2

Diaitaria ciliaris (Di) = assay: as above; parameters: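 grade of growth control; 5 = at least 90%; 4 = 70 to 90%; 3 = 50 to 70%; 2 = 30 to 50%; 1 = 10 to 30%; 0 = under 10%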
Summary of the method: as §2

[10] = test system: common lambsquarters (Ch); assay: as above; parameters: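 grade of growth control; 5 = at least 90%; 4 = 70 to 90%; 3 = 50 to 70%; 2 = 30 to 50%; 1 = 10 to 30%; 0 = under 10%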
Summary of the method: as §2

monochoria (Mo) = assay: Test Example 1: herbicidal effects by paddy field soil treatment; details: 100 g of the active ingredient per 10 ares, 21st day after the application, index 0-5 of Table 47;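 note: grade of growth control; 5 = at least 90%; 4 = 70 to 90%; 3 = 50 to 70%; 2 = 30 to 50%; 1 = 10 to 30%; 0 = under 10%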
Summary of the method: (§3)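 Herbicidal effect was scored against a graded standard 21 days after treatment. Seeds were sown in puddled, leveled paddy soil flooded to 3 cm depth, and the active ingredient was applied at 100 g per 10 ares before greenhouse culture.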

barnyardgrass (Ec) [11] = assay: as above; details: 100 g of the active ingredient per 10 ares, 21st day after the application, index 0-5 of Table 47
Summary of the method: as §3

bulrush (Sc) = assay: as above; details: 100 g of the active ingredient per 10 ares, 21st day after the application, index 0-5 of Table 47;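 note: grade of growth control; 5 = at least 90%; 4 = 70 to 90%; 3 = 50 to 70%; 2 = 30 to 50%; 1 = 10 to 30%; 0 = under 10%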
Summary of the method: as §3

[12] = 21st day after the application, index 0-5 of Table 47
[13] = 100 g of the active ingredient per 10 ares, evaluated on the 14th day after treatment
[14] = evaluated on the 21st day after application
[15] = 100 g active ingredient per 10 ares, evaluated 14th day after treatment

Row | SMILES | Herbicidal effects Am (slender amaranth (Am) [6]; [13]) | Herbicidal effects Po (pale smartweed (Po) [7]; [13]) | Herbicidal effects Ci (rice flatsedge (Ci) [8]; [13]) | Herbicidal effects Ec (barnyardgrass (Ec) [9]; [13]) | Herbicidal effects Di (Diaitaria ciliaris (Di); [13]) | Herbicidal effects Mo (monochoria (Mo)) | Herbicidal effects Ec (barnyardgrass (Ec) [11]) | Herbicidal effects Sc (bulrush (Sc)) | Herbicidal effects Am (slender amaranth (Am) [1]; [14]) | Herbicidal effects Po (pale smartweed (Po) [2]; [14]) | Herbicidal effects Ci (rice flatsedge (Ci) [3]; [14]) | Herbicidal effects Ec (barnyardgrass (Ec) [4]; [14]) | Herbicidal effects Ch [5, 14] | Herbicidal effects Di (Digitaria ciliaris (Di); [14]) | Herbicidal effects Am (slender amaranth (Am) [6]; [15]) | Herbicidal effects Po (pale smartweed (Po) [7]; [15]) | Herbicidal effects Ci (rice flatsedge (Ci) [8]; [15]) | Herbicidal effects Ec (barnyardgrass (Ec) [9]; [15]) | Herbicidal effects Di (Diaitaria ciliaris (Di); [15]) | Herbicidal effects Ch [10, 15] | also measured
1 | Cn1c(C(F)(F)F)ccc(-c2cc(C=NO)c(Cl)cc2F)c1=O [1-164] | 5 | 5 | 5 | 5 | 5 | 5 | 5 | 5 |  |  |  |  |  |  |  |  |  |  |  |  | Herbicidal effects Am (slender amaranth (Am) [1]; [12]): 5; Herbicidal effects Po (pale smartweed (Po) [2]; [12]): 5; Herbicidal effects Ci (rice flatsedge (Ci) [3]; [12]): 5; Herbicidal effects Ec (barnyardgrass (Ec) [4]; [12]): 5; Herbicidal effects Ch [5, 12]: 5; Herbicidal effects Di (Digitaria ciliaris (Di); [12]): 5; Herbicidal effects Ch [10, 13]: 5
2 | Cn1c(C(F)(F)F)ccc(-c2cc(SC3CCCO3)c(Cl)cc2F)c1=O (stereo not drawn) [1-165] | 5 | 5 | 5 | 5 | 5 | 5 | 5 | 5 |  |  |  |  |  |  |  |  |  |  |  |  | Herbicidal effects Am (slender amaranth (Am) [1]; [12]): 5; Herbicidal effects Po (pale smartweed (Po) [2]; [12]): 5; Herbicidal effects Ci (rice flatsedge (Ci) [3]; [12]): 5; Herbicidal effects Ec (barnyardgrass (Ec) [4]; [12]): 5; Herbicidal effects Ch [5, 12]: 5; Herbicidal effects Di (Digitaria ciliaris (Di); [12]): 5; Herbicidal effects Ch [10, 13]: 5
3 | CCCCOc1cc(-c2ccc(C(F)(F)F)n(C)c2=O)c(F)cc1Cl [1-166] | 5 | 5 | 5 | 4 | 5 | 5 | 5 | 5 |  |  |  |  |  |  |  |  |  |  |  |  | Herbicidal effects Am (slender amaranth (Am) [1]; [12]): 5; Herbicidal effects Po (pale smartweed (Po) [2]; [12]): 5; Herbicidal effects Ci (rice flatsedge (Ci) [3]; [12]): 5; Herbicidal effects Ec (barnyardgrass (Ec) [4]; [12]): 5; Herbicidal effects Ch [5, 12]: 5; Herbicidal effects Di (Digitaria ciliaris (Di); [12]): 5; Herbicidal effects Ch [10, 13]: 5
4 | CC(C)COc1cc(-c2ccc(C(F)(F)F)n(C)c2=O)c(F)cc1Cl [1-168] | 5 | 5 | 5 | 5 | 5 | 5 | 5 | 5 |  |  |  |  |  |  |  |  |  |  |  |  | Herbicidal effects Am (slender amaranth (Am) [1]; [12]): 5; Herbicidal effects Po (pale smartweed (Po) [2]; [12]): 5; Herbicidal effects Ci (rice flatsedge (Ci) [3]; [12]): 5; Herbicidal effects Ec (barnyardgrass (Ec) [4]; [12]): 5; Herbicidal effects Ch [5, 12]: 5; Herbicidal effects Di (Digitaria ciliaris (Di); [12]): 5; Herbicidal effects Ch [10, 13]: 5
5 | CC(C)OCCOc1cc(-c2ccc(C(F)(F)F)n(C)c2=O)c(F)cc1Cl [1-169] | 5 | 5 | 5 | 5 | 5 | 5 | 5 | 5 | 5 | 5 | 5 | 5 | 5 | 5 |  |  |  |  |  |  | Herbicidal effects Ch [10, 13]: 5
6 | CC(C)=CCOc1cc(-c2ccc(C(F)(F)F)n(C)c2=O)c(F)cc1Cl [1-174] | 5 | 5 | 5 | 5 | 5 | 5 | 5 | 5 | 5 | 5 | 5 | 5 | 5 | 5 |  |  |  |  |  |  | Herbicidal effects Ch [10, 13]: 5
7 | CC#CCOc1cc(-c2ccc(C(F)(F)F)n(C)c2=O)c(F)cc1Cl [1-175] | 5 | 5 | 5 | 5 | 5 | 5 | 5 | 5 | 5 | 5 | 5 | 5 | 5 | 5 |  |  |  |  |  |  | Herbicidal effects Ch [10, 13]: 5
8 | C=CCOc1cc(Cl)cc(F)c1-c1ccc(C(F)(F)F)n(C)c1=O [1′-3] |  |  |  |  |  | 5 | 5 | 4 | 5 | 5 | 5 | 5 | 5 | 5 | 5 | 5 | 5 | 5 | 5 | 5 | 
9 | C#CC(CC)Oc1cc(Cl)cc(F)c1-c1ccc(C(F)(F)F)n(C)c1=O (stereo not drawn) [1′-6] |  |  |  |  |  | 5 | 5 | 5 | 5 | 5 | 5 | 5 | 5 | 5 | 5 | 5 | 5 | 5 | 5 | 5 | 
10 | C#CCN1C(=O)COc2ccc(-c3ccc(C(F)(F)F)n(C)c3=O)cc21 [2-29] |  |  |  |  |  | 5 | 5 | 5 | 5 | 5 | 5 | 5 | 5 | 5 | 5 | 5 | 5 | 5 | 5 | 5 | 
11 | CC(=O)c1cc(-c2ccc(C(F)(F)F)n(C)c2=O)c(F)cc1Cl [Compound 1-190] |  |  |  |  |  | 5 | 5 | 5 | 5 | 5 | 5 | 5 | 5 | 5 | 5 | 5 | 5 | 5 | 5 | 5 | 
12 | CC(C)C(O)c1cc(-c2ccc(C(F)(F)F)n(C)c2=O)c(F)cc1Cl (stereo not drawn) [Compound 1-195] |  |  |  |  |  | 5 | 5 | 5 | 5 | 5 | 5 | 5 | 5 | 5 | 5 | 5 | 5 | 5 | 5 | 5 | 
13 | CCOCOc1cc(-c2ccc(C(F)(F)F)n(C)c2=O)c(Cl)cc1Cl [Compound 1-206] |  |  |  |  |  | 5 | 5 | 5 | 5 | 5 | 5 | 5 | 5 | 5 | 5 | 5 | 5 | 5 | 5 | 5 | 
14 | C#CCNC(=O)COc1cc(-c2ccc(C(F)(F)F)n(C)c2=O)c(F)cc1Cl [Compound 1-210] |  |  |  |  |  | 5 | 5 | 5 | 5 | 5 | 5 | 5 | 5 | 4 | 5 | 5 | 5 | 4 | 5 | 5 | 
15 | COCCOc1cc(-c2ccc(C(F)(F)F)n(C)c2=O)c(Cl)cc1Cl [Compound 1-211] |  |  |  |  |  | 5 | 5 | 5 | 5 | 5 | 5 | 5 | 5 | 5 | 5 | 5 | 5 | 4 | 5 | 5 | 
16 | CNS(=O)(=O)c1cc(-c2ccc(C(F)(F)F)n(C)c2=O)c(Cl)cc1Cl [Compound 1-256] |  |  |  |  |  | 5 | 5 | 5 | 5 | 5 | 5 | 5 | 5 | 5 | 5 | 5 | 5 | 5 | 5 | 5 | 
17 | C=C(C)CN1C(=O)COc2cc(F)c(-c3ccc(C(F)(F)F)n(C)c3=O)cc21 [Compound 2-11] |  |  |  |  |  | 5 | 5 | 5 | 5 | 5 | 5 | 5 | 5 | 5 | 5 | 5 | 5 | 5 | 5 | 5 | 
18 | CC=CCN1C(=O)COc2cc(F)c(-c3ccc(C(F)(F)F)n(C)c3=O)cc21 [Compound 2-12] |  |  |  |  |  | 5 | 5 | 5 | 5 | 5 | 5 | 5 | 5 | 5 | 5 | 5 | 5 | 5 | 5 | 5 | 
19 | C=C(Cl)CN1C(=O)COc2cc(F)c(-c3ccc(C(F)(F)F)n(C)c3=O)cc21 [Compound 2-13] |  |  |  |  |  | 5 | 5 | 5 | 5 | 5 | 5 | 5 | 5 | 5 | 5 | 5 | 5 | 5 | 5 | 5 | 
